{"source": "paper PMC9105976", "about": "“A Novel β-Hairpin Peptide Z-d14CFR Enhances Multidrug-Resistant Bacterial Clearance in a Murine Model of Mastitis” (International Journal of Molecular Sciences, 2022)", "key": {"[1]": {"system": "Escherichia coli CAU 201919", "experiment": "MIC/MBC, microdilution broth method", "assay_type": "cell-based", "conditions": "Escherichia coli CAU 201919 (MDR isolate)", "summary_of_the_method": "(§1)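 Equal volumes of cell suspension and compound solution are mixed; compounds (peptides, ampicillin, gentamicin) are supplied at 0.001 to 2 mg/mL prior to dilution, and cells at 1 × 10^6 CFU/mL in 10 mM PBS, derived from cultures at OD600 0.6.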"}, "[2]": {"system": "Salmonella typhimurium ATCC14028", "experiment": "MIC/MBC, microdilution broth method", "assay_type": "cell-based", "conditions": "Salmonella typhimurium ATCC14028", "summary_of_the_method": "as §1"}, "[3]": {"system": "Escherichia coli CAU 201920", "experiment": "MIC/MBC, microdilution broth method", "assay_type": "cell-based", "conditions": "Escherichia coli CAU 201920 (MDR isolate)", "summary_of_the_method": "as §1"}, "[4]": {"system": "Bacillus cereus CAU 202020", "experiment": "MIC/MBC, microdilution broth method", "assay_type": "cell-based", "conditions": "Bacillus cereus CAU 202020 (MDR isolate)", "summary_of_the_method": "as §1"}, "[5]": {"system": "Staphylococcus haemolyticus CAU202078", "experiment": "MIC/MBC, microdilution broth method", "assay_type": "cell-based", "conditions": "Staphylococcus haemolyticus CAU202078 (MDR isolate)", "summary_of_the_method": "as §1"}, "[6]": {"system": "Proteus vulgaris CVCC1971", "experiment": "MIC/MBC, microdilution broth method", "assay_type": "cell-based", "conditions": "Proteus vulgaris CVCC1971", "summary_of_the_method": "as §1"}, "[7]": {"system": "Streptococcus suis CVCC3307", "experiment": "MIC/MBC, microdilution broth method", "assay_type": "cell-based", "conditions": "Streptococcus suis CVCC3307", "summary_of_the_method": "as §1"}, "[8]": {"system": "Staphylococcus aureus ATCC29213", "experiment": "MIC/MBC, microdilution broth method", "assay_type": "cell-based", "conditions": "Staphylococcus aureus ATCC29213", "summary_of_the_method": "as §1"}, "[9]": {"system": "Klebsiella pneumoniae CAU202084", "experiment": "MIC/MBC, microdilution broth method", "assay_type": "cell-based", "conditions": "Klebsiella pneumoniae CAU202084 (MDR isolate)", "summary_of_the_method": "as §1"}, "[10]": {"system": "Escherichia coli ATCC25922", "experiment": "MIC/MBC, microdilution broth method", "assay_type": "cell-based", "conditions": "Escherichia coli ATCC25922", "summary_of_the_method": "as §1"}, "[11]": {"system": "Escherichia coli CVCC1450", "experiment": "MIC/MBC, microdilution broth method", "assay_type": "cell-based", "conditions": "Escherichia coli CVCC1450", "summary_of_the_method": "as §1"}, "[12]": {"system": "Gram-positive and Gram-negative bacteria", "experiment": "Antimicrobial activity, statements over the bacterial panel", "assay_type": "cell-based", "conditions": "data not shown", "experimental": "The MIC of peptides against bacteria was carried out by the microdilution broth method. The bacterial culture (OD 600 = 0.6) was diluted in 10 mM PBS to 1 × 10^6 CFU/mL. […]"}, "MRSA ATCC33591": {"system": "MRSA ATCC33591", "experiment": "MIC/MBC, microdilution broth method", "assay_type": "cell-based, S. aureus", "summary_of_the_method": "as §1"}, "[13]": {"experiment": "Retention time of peptide in HPLC (hydrophobicity)", "assay_type": "physicochemical", "conditions": "used as measure of hydrophobicity (order Z-d14CR > Z-d14CF > Z-d13 > Z-d14CFR > Z-d14C); column and gradient not given"}, "[14]": {"conditions": "1 × 10^6 CFU/mL, 18 h at 37 °C, NA = no antimicrobial activity at 1 mg/mL"}, "[15]": {"conditions": "kills 99.9% bacteria, NA = no activity at 1 mg/mL"}, "[16]": {"conditions": "minimum concentration which kills 99.9% bacteria, NA = no activity at 1 mg/mL"}}, "note": "Marks after values point to notes of the source that are not given here. No end group written: not given here.", "data": [{"substance": "GGYCNSKSVCVCR-NH2 (disulfide (positions not given here)) [Z-d13, Z. atratus defensin β-sheet region analogue, …-NH2]", "values": [{"measurement": "MIC", "setting": "[1]; [14]", "result": "NA (NA) (No antimicrobial activity at 1 mg/mL)"}, {"measurement": "MBC", "setting": "[1]; [15]", "result": "NA (NA) (No antimicrobial activity at 1 mg/mL)"}, {"measurement": "MIC", "setting": "[2]; [14]", "result": "NA (NA) (No antimicrobial activity at 1 mg/mL)"}, {"measurement": "MBC", "setting": "[2]; [15]", "result": "NA (NA) (No antimicrobial activity at 1 mg/mL)"}, {"measurement": "MIC", "setting": "[3]; [14]", "result": "NA (NA) (No antimicrobial activity at 1 mg/mL)"}, {"measurement": "MBC", "setting": "[3]; [15]", "result": "NA (NA) (No antimicrobial activity at 1 mg/mL)"}, {"measurement": "MIC", "setting": "[4]; [14]", "result": "NA (NA) (No antimicrobial activity at 1 mg/mL)"}, {"measurement": "MBC", "setting": "[4]; [15]", "result": "NA (NA) (No antimicrobial activity at 1 mg/mL)"}, {"measurement": "MIC", "setting": "[5]; [14]", "result": "NA (NA) (No antimicrobial activity at 1 mg/mL)"}, {"measurement": "MBC", "setting": "[5]; [15]", "result": "NA (NA) (No antimicrobial activity at 1 mg/mL)"}, {"measurement": "MIC", "setting": "[6]; [14]", "result": "NA (NA) (No antimicrobial activity at 1 mg/mL)"}, {"measurement": "MBC", "setting": "[6]; [15]", "result": "NA (NA) (No antimicrobial activity at 1 mg/mL)"}, {"measurement": "MIC", "setting": "[7]; [14]", "result": "NA (NA) (No antimicrobial activity at 1 mg/mL)"}, {"measurement": "MBC", "setting": "[7]; [15]", "result": "NA (NA) (No antimicrobial activity at 1 mg/mL)"}, {"measurement": "MIC", "setting": "[8]; [14]", "result": "NA (NA) (No antimicrobial activity at 1 mg/mL)"}, {"measurement": "MBC", "setting": "[8]; [15]", "result": "NA (NA) (No antimicrobial activity at 1 mg/mL)"}, {"measurement": "MIC", "setting": "[9]; [14]", "result": "NA (NA) (No antimicrobial activity at 1 mg/mL)"}, {"measurement": "MBC", "setting": "[9]; [15]", "result": "NA (NA) (No antimicrobial activity at 1 mg/mL)"}, {"measurement": "MIC", "setting": "[10]; [14]", "result": "NA (NA) ^c (No antimicrobial activity at 1 mg/mL)"}, {"measurement": "MBC", "setting": "[10]; [16]", "result": "NA (NA) ^c (No antimicrobial activity at 1 mg/mL)"}, {"measurement": "MIC", "setting": "[11]; [14]", "result": "NA (NA) (No antimicrobial activity at 1 mg/mL)"}, {"measurement": "MBC", "setting": "[11]; [16]", "result": "NA (NA) (No antimicrobial activity at 1 mg/mL)"}, {"measurement": "activity against bacteria at 3 mg/mL", "setting": "[12]", "result": "slight activity"}, {"measurement": "MIC", "setting": "MRSA ATCC33591; MRSA (methicillin-resistant S. aureus) ATCC33591, 1 × 10^6 CFU/mL, 18 h at 37 °C, NA = no antimicrobial activity at 1 mg/mL", "result": "NA (NA) (No antimicrobial activity at 1 mg/mL)"}, {"measurement": "MBC", "setting": "MRSA ATCC33591; MRSA ATCC33591, kills 99.9% bacteria, NA = no activity at 1 mg/mL", "result": "NA (NA) (No antimicrobial activity at 1 mg/mL)"}, {"measurement": "RT, retention time of peptide in HPLC", "setting": "[13]", "result": 9.077, "unit": "min"}]}]}
